For one molecule, IC50 results are on record in ChEMBL document CHEMBL5725201, “Cycloalkane derivatives” (2016).

Structures are written as SMILES.

The assay in a line: Electrophysiological Assay: Current record was obtained by an automated patch clamp system IonWorks Quattro (Molecular Devices Corporation) in Population Patch Clamp mode. The operation was conducted in accordance with the operating procedure of the system. A Dulbecco's phosphate buffer containing calcium and magnesium (Sigma) was used as an extracellular fluid, and a low Cl-buffer (100 mM K-gluconate, 40 mM KCl, 3.2 mM MgCl2, 5 mM EGTA, 5 mM Hepes, pH 7.3) was used as an intracellular fluid. A test compound was dissolved in dimethylsulfoxide (DMSO) to prepare a 30 mM stock solution, so as to produce 4-fold serial dilutions with the extracellular fluid for attaining a DMSO concentration of 0.3% in measurement.The hNav 1.7/β1/β2 cells cultured to a 70-80% confluent state in a T150 flask (Sumilon) were washed with PBS and subsequently with versene (Invitrogen Corp.), and collected by allowing to react with 0.05% trypsin (Invitrogen Corp.) at 37° C. for 3 minutes. After washing with a culture medium, the resultant cells were suspended in an extracellular fluid at a concentration of […] so as to be used for the measurement. The cell membrane was perforated by using an intracellular fluid including 100 ug/ml amphotericin B (Sigma). Current response was obtained at a sampling frequency of 10 kHz. […]. In kind it is cell-based. (In general: Patch clamp records ionic current or voltage across a cell membrane.)

For the molecule `Cc1c(O[C@H]2CCCC[C@@H]2c2c[nH]nc2N)ccc(S(=O)(=O)Nc2ccncn2)c1F`, the IC50 (in general, the concentration at which inhibition is half-maximal) was 100 nM.
